How the values were obtained:
[1] = molecular target: Neuronal acetylcholine receptor; alpha4/beta2 (Homo sapiens, UniProt P17787+P43681); assay: Displacement of [3H]cytisine from human alpha4beta2 nAChR expressed in CHOK1 cell membrane by microbeta scintillation counting method; type: cell membranes, CHO-K1
[2] = test system: Rattus norvegicus; assay: Antidepressant activity in Wistar rat assessed as immobility time at 3.0 mg/kg, po measured for 5 mins by forced swim test (reference value: 241.9 to 281.6 sec); type: functional
[3] = test system: Rattus norvegicus; assay: Antidepressant activity in Wistar rat assessed as immobility time at 10.0 mg/kg, po measured for 5 mins by forced swim test (reference value: 241.9 to 281.6 sec); type: functional
[4] = molecular target: Cytochrome P450 2D6 (Homo sapiens, UniProt P10635); assay: Inhibition of CYP2D6 in human liver microsomes using dextromethorphan as substrate incubated for 12 min in presence of NADPH by LC-MS/MS analysis; type: ADME
Chain of Cytochrome P450 2D6 (P10635 whole entry): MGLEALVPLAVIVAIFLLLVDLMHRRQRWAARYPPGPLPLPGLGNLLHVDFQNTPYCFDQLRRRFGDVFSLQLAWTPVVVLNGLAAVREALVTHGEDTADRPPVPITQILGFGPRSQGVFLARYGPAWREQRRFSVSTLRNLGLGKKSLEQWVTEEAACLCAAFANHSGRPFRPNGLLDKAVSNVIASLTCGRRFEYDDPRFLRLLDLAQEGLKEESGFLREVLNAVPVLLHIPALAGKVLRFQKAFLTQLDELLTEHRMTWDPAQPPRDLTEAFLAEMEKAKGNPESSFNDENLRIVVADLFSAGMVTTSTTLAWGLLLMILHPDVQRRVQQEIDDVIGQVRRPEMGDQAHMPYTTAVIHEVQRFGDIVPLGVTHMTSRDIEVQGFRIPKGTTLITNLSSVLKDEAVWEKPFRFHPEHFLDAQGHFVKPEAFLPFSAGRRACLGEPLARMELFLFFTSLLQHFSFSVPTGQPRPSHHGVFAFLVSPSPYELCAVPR

[5] = molecular target: Neuronal acetylcholine receptor; alpha3/beta4 (Homo sapiens, UniProt P30926+P32297); assay: Displacement of [3H]epibatidine from human alpha3beta4 nAChR expressed in IMR32 cell membrane by microbeta scintillation counting method; type: cell membranes, IMR-32
Chain of Neuronal acetylcholine receptor; alpha3/beta4 (P30926 whole entry): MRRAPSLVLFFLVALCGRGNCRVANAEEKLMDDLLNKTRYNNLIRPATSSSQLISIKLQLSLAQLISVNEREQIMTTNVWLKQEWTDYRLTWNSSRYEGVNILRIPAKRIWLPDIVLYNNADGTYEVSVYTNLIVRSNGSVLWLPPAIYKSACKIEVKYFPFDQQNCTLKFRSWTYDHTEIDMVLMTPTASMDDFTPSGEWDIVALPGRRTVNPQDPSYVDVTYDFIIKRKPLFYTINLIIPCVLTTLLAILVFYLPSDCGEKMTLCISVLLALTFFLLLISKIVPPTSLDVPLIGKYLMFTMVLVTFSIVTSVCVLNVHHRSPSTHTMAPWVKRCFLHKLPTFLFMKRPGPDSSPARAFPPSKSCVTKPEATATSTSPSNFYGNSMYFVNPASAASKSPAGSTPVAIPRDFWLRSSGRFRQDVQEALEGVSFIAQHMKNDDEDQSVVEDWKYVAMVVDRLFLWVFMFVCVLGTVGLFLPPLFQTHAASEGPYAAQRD
Chain of Neuronal acetylcholine receptor; alpha3/beta4 (P32297 whole entry): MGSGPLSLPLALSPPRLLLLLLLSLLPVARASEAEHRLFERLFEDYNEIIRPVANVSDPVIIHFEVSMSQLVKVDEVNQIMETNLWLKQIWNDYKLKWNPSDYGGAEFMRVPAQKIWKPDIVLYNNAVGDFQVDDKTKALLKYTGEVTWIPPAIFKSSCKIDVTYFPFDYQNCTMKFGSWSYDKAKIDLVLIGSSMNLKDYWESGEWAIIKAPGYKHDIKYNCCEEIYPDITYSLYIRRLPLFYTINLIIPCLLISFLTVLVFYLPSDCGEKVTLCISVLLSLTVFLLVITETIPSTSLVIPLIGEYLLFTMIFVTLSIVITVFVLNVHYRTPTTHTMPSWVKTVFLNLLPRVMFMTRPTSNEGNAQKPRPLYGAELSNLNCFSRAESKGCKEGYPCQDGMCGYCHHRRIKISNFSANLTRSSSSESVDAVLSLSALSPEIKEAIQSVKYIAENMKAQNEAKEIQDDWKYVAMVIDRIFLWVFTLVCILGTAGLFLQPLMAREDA

[6] = Metabolic stability in human liver microsomes assessed as compound metabolism incubated for 30 mins in presence of NADPH by LC-MS/MS analysis; type: ADME, Microsome; settings: read-out: Drug metabolism
[7] = molecular target: Cytochrome P450 3A4 (Homo sapiens, UniProt P08684); assay: Inhibition of CYP3A4 in human liver microsomes using midazolam as substrate incubated for 2 min in presence of NADPH by LC-MS/MS analysis; type: ADME
Chain of Cytochrome P450 3A4 (P08684 whole entry): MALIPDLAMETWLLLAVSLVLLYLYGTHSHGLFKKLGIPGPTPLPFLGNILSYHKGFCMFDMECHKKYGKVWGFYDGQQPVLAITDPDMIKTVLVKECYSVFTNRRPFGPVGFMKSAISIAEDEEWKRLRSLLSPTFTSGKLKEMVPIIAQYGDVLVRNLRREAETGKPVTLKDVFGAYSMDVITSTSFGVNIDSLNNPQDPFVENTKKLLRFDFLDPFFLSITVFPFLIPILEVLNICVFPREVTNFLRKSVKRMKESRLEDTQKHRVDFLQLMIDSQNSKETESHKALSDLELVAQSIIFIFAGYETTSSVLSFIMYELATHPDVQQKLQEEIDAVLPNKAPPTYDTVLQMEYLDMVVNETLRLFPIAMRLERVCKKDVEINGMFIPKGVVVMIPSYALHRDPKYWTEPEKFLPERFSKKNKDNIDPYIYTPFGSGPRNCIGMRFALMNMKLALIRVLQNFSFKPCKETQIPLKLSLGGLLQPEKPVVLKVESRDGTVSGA

[8] = Metabolic stability in rat liver microsomes assessed as compound metabolism incubated for 30 mins in presence of NADPH by LC-MS/MS analysis; type: ADME, Microsome; settings: read-out: Drug metabolism
[9] = Ratio of drug level in brain to plasma in Wistar rat at 10 ml/kg, po or 2 ml/kg, iv measured upto 24 hrs by LC-MS/MS analysis; type: ADME, organism-based; settings: brain and plasma, read-out: BPR
[10] = Oral bioavailability in Wistar rat at 10 ml/kg measured upto 24 hrs by LC-MS/MS analysis; type: ADME, organism-based; settings: in vivo
[11] = Cmax in Wistar rat at 10 ml/kg, po or 2 ml/kg, iv measured upto 24 hrs by LC-MS/MS analysis; type: ADME, organism-based; settings: in vivo
[12] = AUC in Wistar rat at 10 ml/kg, po or 2 ml/kg, iv measured upto 24 hrs by LC-MS/MS analysis; type: ADME, organism-based; settings: in vivo
[13] = Half life in Wistar rat at 10 ml/kg, po or 2 ml/kg, iv measured upto 24 hrs by LC-MS/MS analysis; type: ADME, organism-based; settings: in vivo

Chain of Neuronal acetylcholine receptor; alpha4/beta2 (P17787 whole entry): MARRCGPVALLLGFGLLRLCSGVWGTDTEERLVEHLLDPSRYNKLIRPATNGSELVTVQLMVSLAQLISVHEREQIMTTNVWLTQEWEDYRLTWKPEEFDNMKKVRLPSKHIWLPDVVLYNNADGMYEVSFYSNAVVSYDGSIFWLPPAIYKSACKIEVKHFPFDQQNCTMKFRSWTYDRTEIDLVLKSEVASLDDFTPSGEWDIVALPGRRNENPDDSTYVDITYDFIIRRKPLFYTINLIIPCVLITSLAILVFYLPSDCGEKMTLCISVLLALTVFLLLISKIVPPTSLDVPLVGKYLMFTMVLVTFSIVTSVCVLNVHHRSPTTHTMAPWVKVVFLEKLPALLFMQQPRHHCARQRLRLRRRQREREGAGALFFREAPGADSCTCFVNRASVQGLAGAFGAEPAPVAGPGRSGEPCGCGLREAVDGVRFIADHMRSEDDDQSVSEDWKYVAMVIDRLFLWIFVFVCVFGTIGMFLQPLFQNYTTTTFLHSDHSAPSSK
Chain of Neuronal acetylcholine receptor; alpha4/beta2 (P43681 whole entry): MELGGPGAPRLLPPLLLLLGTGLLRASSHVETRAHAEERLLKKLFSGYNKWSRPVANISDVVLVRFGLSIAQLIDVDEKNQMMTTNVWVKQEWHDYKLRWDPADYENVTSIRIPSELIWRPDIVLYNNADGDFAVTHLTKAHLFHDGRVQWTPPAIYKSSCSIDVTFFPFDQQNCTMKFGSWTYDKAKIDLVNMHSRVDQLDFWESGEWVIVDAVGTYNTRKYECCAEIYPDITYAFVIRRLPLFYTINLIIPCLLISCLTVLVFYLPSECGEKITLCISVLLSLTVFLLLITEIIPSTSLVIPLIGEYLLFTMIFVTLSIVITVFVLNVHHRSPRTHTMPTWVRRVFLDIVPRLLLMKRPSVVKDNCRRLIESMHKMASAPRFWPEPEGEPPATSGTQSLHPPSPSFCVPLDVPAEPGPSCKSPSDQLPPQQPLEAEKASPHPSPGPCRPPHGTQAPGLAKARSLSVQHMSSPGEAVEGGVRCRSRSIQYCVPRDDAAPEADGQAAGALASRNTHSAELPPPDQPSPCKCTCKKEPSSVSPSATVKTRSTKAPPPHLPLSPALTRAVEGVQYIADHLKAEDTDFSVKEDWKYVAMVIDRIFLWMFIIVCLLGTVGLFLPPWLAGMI

c1nnc(-c2cncc(OC[C@@H]3C[C@H]4C[C@H]4N3)c2)o1
Ki [1]: 131 nM

CC(=O)N1[C@H](COc2ccc(Cl)nc2)C[C@H]2C[C@H]21
Ki [1]: > 10000 nM

Cc1ncccc1OC[C@@H]1C[C@H]2C[C@H]2N1.Cl
Ki [1]: > 10000 nM
Time [2]: 204.8 s
Time [3]: 198.8 s

Clc1ccc(OC[C@H]2C[C@H]3C[C@H]3N2)cn1
IC50 [4]: 32100 nM
Ki [5]: 525 nM
Ki [1]: 329 nM
metabolised at 0.5 h [6]: 18.3%
IC50 [7]: > 45000 nM
metabolised at 0.5 h [8]: 69.6%

Cc1ccc(OC[C@@H]2C[C@H]3C[C@H]3N2)cn1
Ki [1]: 26.2 nM

Fc1ncccc1OC[C@@H]1C[C@H]2C[C@H]2N1
Ki [1]: 17.4 nM

C[C@@]12C[C@@H]1CC(COc1ccc(Cl)nc1)N2 (some centres undefined)
Ki [1]: 6880 nM

Cl.c1cncc(OC[C@@H]2C[C@H]3C[C@H]3N2)c1
IC50 [4]: 26200 nM
Kp at 24 h [9]: 3.8
Ki [5]: > 10000 nM
bioavailability [10]: 92%
Ki [1]: 7.9 nM
metabolised at 0.5 h [6]: 12.1%
Time [2]: 231 s
Time [3]: 210.4 s
IC50 [7]: > 45000 nM
metabolised at 0.5 h [8]: 17.9%
Cmax [11]: 7610 ng/mL
AUC at 24 h [12]: 10900 ng·h/mL
half-life [13]: 4.19 h

CN1[C@H](COc2cncc(Br)c2)C[C@H]2C[C@H]21
Ki [1]: 4.2 nM

Clc1ncccc1OC[C@@H]1C[C@@H]2C[C@@H]2N1
Ki [1]: 1 nM

Clc1cncc(OC[C@@H]2C[C@@H]3C[C@@H]3N2)c1
Ki [1]: 327 nM

Cl.Fc1ccc(OC[C@@H]2C[C@H]3C[C@H]3N2)cn1
IC50 [4]: > 45000 nM
Kp at 24 h [9]: 2.38
Ki [5]: > 10000 nM
bioavailability [10]: 96%
Ki [1]: 3.9 nM
metabolised at 0.5 h [6]: 10.7%
Time [2]: 259.6 s
Time [3]: 263.5 s
IC50 [7]: > 45000 nM
metabolised at 0.5 h [8]: 5.1%
Cmax [11]: 3760 ng/mL
AUC at 24 h [12]: 15600 ng·h/mL
half-life [13]: 4.02 h

CN1[C@H](COc2ccc(Cl)nc2)C[C@H]2C[C@H]21
Ki [1]: 3.4 nM

Clc1cncc(OCC[C@@H]2C[C@H]3C[C@H]3N2)c1
Ki [1]: 395 nM

C[C@@]12C[C@@H]1CC(COc1cccnc1)N2 (some centres undefined)
Ki [1]: 3.6 nM

Clc1ccc(OCC[C@@H]2C[C@H]3C[C@H]3N2)cn1
Ki [1]: 327 nM

Clc1ccc(OC[C@H]2NC[C@@H]3C[C@@H]32)cn1
Ki [1]: 0.2 nM

CN1[C@H](COc2cccnc2)C[C@H]2C[C@H]21
Ki [1]: 5.5 nM

C=Cc1nnc(-c2cncc(OC[C@@H]3C[C@H]4C[C@H]4N3)c2)o1
Ki [1]: 2660 nM

c1cncc(OC[C@]23C[C@H]2CCN3)c1
Ki [1]: 242 nM

C[C@@]12C[C@@H]1CC(COc1cccnc1Cl)N2 (some centres undefined)
Ki [1]: > 10000 nM

COc1ccc(OC[C@@H]2C[C@H]3C[C@H]3N2)cn1
Ki [1]: > 10000 nM

c1ccc(OC[C@@H]2C[C@H]3C[C@H]3N2)nc1
Ki [1]: > 10000 nM

OCCCCC#Cc1cncc(OC[C@@H]2C[C@H]3C[C@H]3N2)c1
Ki [1]: 2.7 nM

Clc1cncc(OC[C@H]2NC[C@@H]3C[C@@H]32)c1
IC50 [4]: > 45000 nM
Ki [5]: 8.2 nM
Ki [1]: 0.2 nM
metabolised at 0.5 h [6]: 6.04%
IC50 [7]: > 45000 nM
metabolised at 0.5 h [8]: 12.1%

CN1[C@H](COc2cccnc2F)C[C@H]2C[C@H]21
Ki [1]: 31.9 nM

Clc1nccnc1OC[C@@H]1C[C@H]2C[C@H]2N1
Ki [1]: 5110 nM

Cc1ncccc1OC[C@@H]1CCCN1 [POZANICLINE]
Ki [5]: > 10000 nM

Cc1ccc(OC[C@@H]2C[C@@H]3C[C@@H]3N2)cn1
Ki [1]: 1.38 nM

CN1[C@H](COc2cncc(Cl)c2)C[C@H]2C[C@H]21
Ki [1]: 0.37 nM

Clc1cc(OC[C@@H]2C[C@H]3C[C@H]3N2)cnc1Cl
Ki [1]: 149 nM

Clc1ccc(OC[C@@H]2C[C@H]3C[C@H]3N2)nn1
Ki [1]: 4740 nM

Cc1ncccc1OC[C@@H]1C[C@H]2C[C@H]2N1C
Ki [1]: 231 nM

Cl.c1cncc(OC[C@@H]2C[C@@H]3C[C@@H]3N2)c1
IC50 [4]: 30200 nM
Kp at 24 h [9]: 3.07
Ki [5]: 558 nM
bioavailability [10]: 87%
Ki [1]: 1340 nM
metabolised at 0.5 h [6]: 2.6%
IC50 [7]: 31900 nM
metabolised at 0.5 h [8]: 3.9%
Cmax [11]: 1500 ng/mL
AUC at 24 h [12]: 2710 ng·h/mL
half-life [13]: 1.08 h

Brc1ccc(OC[C@@H]2C[C@H]3C[C@H]3N2)cn1
Ki [1]: 46.5 nM

c1cc(OC[C@@H]2C[C@H]3C[C@H]3N2)ccn1
Ki [1]: > 10000 nM

CN1[C@H](COc2ccc(F)nc2)C[C@H]2C[C@H]21
Ki [1]: 1.1 nM

Brc1cncc(OC[C@@H]2C[C@@H]3C[C@@H]3N2)c1
Ki [1]: 2.9 nM

Fc1ccc(OC[C@@H]2C[C@@H]3C[C@@H]3N2)cn1
Ki [1]: 1.2 nM

c1cnc(OC[C@@H]2C[C@H]3C[C@H]3N2)cn1
Ki [1]: > 10000 nM

Clc1cncc(OC[C@@H]2CC[C@H]3C[C@H]3N2)c1
Ki [1]: 31.3 nM

c1ccc2ncc(OC[C@@H]3C[C@H]4C[C@H]4N3)cc2c1
Ki [1]: 600 nM

Clc1ccc(OC[C@]23C[C@H]2CCN3)cn1
Ki [1]: 341 nM

C[C@@]12C[C@@H]1CC(COc1cncc(Cl)c1)N2 (some centres undefined)
Ki [1]: 577 nM

Clc1cc(OC[C@@H]2C[C@H]3C[C@H]3N2)c(Cl)nc1Cl
Ki [1]: 265 nM

c1cncc(OC[C@H]2NC[C@@H]3C[C@@H]32)c1
IC50 [4]: > 45000 nM
Ki [5]: 26.4 nM
Ki [1]: 0.14 nM
metabolised at 0.5 h [6]: 6.7%
IC50 [7]: 21100 nM
metabolised at 0.5 h [8]: 6.2%

Cl.c1cncc(OC[C@@H]2CC[C@H]3C[C@H]3N2)c1
IC50 [4]: > 45000 nM
Kp at 24 h [9]: 0.32
Ki [5]: 68.4 nM
Ki [1]: 11.4 nM
metabolised at 0.5 h [6]: 53.1%
IC50 [7]: > 45000 nM
metabolised at 0.5 h [8]: 17%
Cmax [11]: 665 ng/mL
half-life [13]: 0.01 h

Brc1cncc(OC[C@@H]2C[C@H]3C[C@H]3N2)c1
Ki [1]: 6.4 nM

Clc1ncccc1OC[C@@H]1CC[C@H]2C[C@H]2N1
Ki [1]: > 10000 nM

Clc1cncc(OC[C@]23C[C@H]2CCN3)c1
Ki [1]: 827 nM

FC(F)(F)c1ccc(OC[C@@H]2C[C@H]3C[C@H]3N2)cn1
Ki [1]: 768 nM

CN1[C@H](COc2cccnc2Cl)C[C@H]2C[C@H]21
Ki [1]: 28.1 nM

Cc1ccc(OC[C@@H]2C[C@H]3C[C@H]3N2C)cn1
Ki [1]: 20 nM

COc1ccc(OC[C@@H]2C[C@@H]3C[C@@H]3N2)cn1
Ki [1]: 4.7 nM

Cc1nnc(-c2cncc(OC[C@@H]3C[C@H]4C[C@H]4N3)c2)o1
Ki [1]: 407 nM

Cl.Clc1ccc(OC[C@@H]2C[C@@H]3C[C@@H]3N2)cn1
IC50 [4]: > 45000 nM
Kp at 24 h [9]: 2.14
Ki [5]: 1020 nM
bioavailability [10]: 66%
Ki [1]: 6.4 nM
metabolised at 0.5 h [6]: 13.6%
IC50 [7]: > 45000 nM
metabolised at 0.5 h [8]: 36%
Cmax [11]: 638 ng/mL
AUC at 24 h [12]: 1620 ng·h/mL
half-life [13]: 2.73 h

c1cncc(N2CCC3(CCCN3)C2)c1 (centres undefined) [TC-2216]
Ki [5]: > 10000 nM
Ki [1]: 18.6 nM
Time [2]: 249.1 s
Time [3]: 183.9 s
